Legend:
DU-145 = assay: Inhibition of cells growth by colorimetric (SRB) assay, DU-145
Procedure, shortened: (§1)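 Read-out is sulforhodamine B protein stain (OD 490 nm) after cold TCA fixation, following 48 h continuous exposure to samples spanning 10 to 10^−8 μg/ml.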

HeLa = assay: Inhibition of cells growth by colorimetric (SRB) assay, HeLa; for HELA TGI: unit not given here
Procedure, shortened: as §1

IGROV-ET = assay: Inhibition of cells growth by colorimetric (SRB) assay, IGROV-ET
Procedure, shortened: as §1

LoVo = assay: Inhibition of cells growth by colorimetric (SRB) assay, LoVo
Procedure, shortened: as §1

SK-MEL-28 = assay: Inhibition of cells growth by colorimetric (SRB) assay, SK-MEL-28
Procedure, shortened: as §1

A-549 = assay: Inhibition of cells growth by colorimetric (SRB) assay, A-549
Procedure, shortened: as §1

LoVo-Dox = assay: Inhibition of cells growth by colorimetric (SRB) assay, LoVo-Dox
Procedure, shortened: as §1

SK-BR-3 = assay: Inhibition of cells growth by colorimetric (SRB) assay, SK-BR-3
Procedure, shortened: as §1

K-562 = assay: Inhibition of cells growth by colorimetric (SRB) assay, K-562
Procedure, shortened: as §1

HT-29 = assay: Inhibition of cells growth by colorimetric (SRB) assay, HT-29
Procedure, shortened: as §1

HeLa-APL = assay: Inhibition of cells growth by colorimetric (SRB) assay, HeLa-APL
Procedure, shortened: as §1

PANC-1 = assay: Inhibition of cells growth by colorimetric (SRB) assay, PANC-1
Procedure, shortened: as §1

IGROV-1 = assay: Inhibition of cells growth by colorimetric (SRB) assay, IGROV-1
Procedure, shortened: as §1

LNCaP = assay: Inhibition of cells growth by colorimetric (SRB) assay, LNCaP
Procedure, shortened: as §1

SMILES: Cl.Nc1nccc(-c2c3c(Cl)ccnc3n3c(N)nccc23)n1 [Compound 83]
- GI50 (DU-145; Homo sapiens, DU-145, 48 h, read-out: DU-145 GI50, SRB assay, 48 hours exposure): 0.621 µM
- CC50 (DU-145; Homo sapiens, DU-145, 48 h, read-out: DU-145 LC50, SRB assay, 48 hours exposure): 8.32 µM
- DU-145 TGI (DU-145; SRB assay, 48 hours exposure): 1.49E−06
- GI50 (HeLa; Homo sapiens, HeLa, 48 h, read-out: HELA GI50, SRB assay, 48 hours exposure): 0.0478 µM
- HELA TGI (HeLa; SRB assay, 48 hours exposure): 1.38E−07
- GI50 (IGROV-ET; Homo sapiens, 48 h, read-out: IGROV-ET GI50, SRB assay, 48 hours exposure): 1.08 µM
- CC50 (IGROV-ET; Homo sapiens, 48 h, read-out: IGROV-ET LC50, SRB assay, 48 hours exposure): 26 µM
- IGROV-ET TGI (IGROV-ET; SRB assay, 48 hours exposure): 2.29E−06
- GI50 (LoVo; Homo sapiens, LoVo, 48 h, read-out: LOVO GI50, SRB assay, 48 hours exposure): 0.471 µM
- CC50 (LoVo; Homo sapiens, LoVo, 48 h, read-out: LOVO LC50, SRB assay, 48 hours exposure): 2.09 µM
- LOVO TGI (LoVo; SRB assay, 48 hours exposure): 9.90E−07
- GI50 (SK-MEL-28; Homo sapiens, SK-MEL-28, 48 h, read-out: MEL-28 GI50, SRB assay, 48 hours exposure): 1.32 µM
- CC50 (SK-MEL-28; Homo sapiens, SK-MEL-28, 48 h, read-out: MEL-28 LC50, SRB assay, 48 hours exposure): 11.8 µM
- MEL-28 TGI (SK-MEL-28; SRB assay, 48 hours exposure): 3.64E−06
- GI50 (A-549; Homo sapiens, A549, 48 h, read-out: A-549 GI50, SRB assay, 48 hours exposure): 0.757 µM
- CC50 (A-549; Homo sapiens, A549, 48 h, read-out: A-549 LC50, SRB assay, 48 hours exposure): 8.66 µM
- A-549 TGI (A-549; SRB assay, 48 hours exposure): 1.57E−06
- GI50 (LoVo-Dox; Homo sapiens, 48 h, read-out: LOVO-DOX GI50, SRB assay, 48 hours exposure): 0.803 µM
- CC50 (LoVo-Dox; Homo sapiens, 48 h, read-out: LOVO-DOX LC50, SRB assay, 48 hours exposure): 17.8 µM
- LOVO-DOX TGI (LoVo-Dox; SRB assay, 48 hours exposure): 1.72E−06
- GI50 (SK-BR-3; Homo sapiens, SK-BR-3, 48 h, read-out: SK-BR-3 GI50, SRB assay, 48 hours exposure): 0.575 µM
- CC50 (SK-BR-3; Homo sapiens, SK-BR-3, 48 h, read-out: SK-BR-3 LC50, SRB assay, 48 hours exposure): 1.92 µM
- SK-BR-3 TGI (SK-BR-3; SRB assay, 48 hours exposure): 1.05E−06
- GI50 (K-562; Homo sapiens, K562, 48 h, read-out: K-562 GI50, SRB assay, 48 hours exposure): 2.6 µM
- CC50 (K-562; Homo sapiens, K562, 48 h, read-out: K-562 LC50, SRB assay, 48 hours exposure): 26 µM
- K-562 TGI (K-562; SRB assay, 48 hours exposure): 1.73E−05
- GI50 (HT-29; Homo sapiens, HT-29, 48 h, read-out: HT-29 GI50, SRB assay, 48 hours exposure): 1.37 µM
- CC50 (HT-29; Homo sapiens, HT-29, 48 h, read-out: HT-29 LC50, SRB assay, 48 hours exposure): 26 µM
- HT-29 TGI (HT-29; SRB assay, 48 hours exposure): 3.90E−06
- GI50 (HeLa-APL; Homo sapiens, 48 h, read-out: HELA-APL GI50, SRB assay, 48 hours exposure): 0.0478 µM
- CC50 (HeLa-APL; Homo sapiens, 48 h, read-out: HELA-APL LC50, SRB assay, 48 hours exposure): 0.257 µM
- HELA-APL TGI (HeLa-APL; SRB assay, 48 hours exposure): 1.11E−07
- GI50 (PANC-1; Homo sapiens, PANC-1, 48 h, read-out: PANC-1 GI50, SRB assay, 48 hours exposure): 1.95 µM
- CC50 (PANC-1; Homo sapiens, PANC-1, 48 h, read-out: PANC-1 LC50, SRB assay, 48 hours exposure): 26 µM
- PANC-1 TGI (PANC-1; SRB assay, 48 hours exposure): 1.07E−05
- GI50 (IGROV-1; Homo sapiens, IGROV-1, 48 h, read-out: IGROV GI50, SRB assay, 48 hours exposure): 0.998 µM
- CC50 (IGROV-1; Homo sapiens, IGROV-1, 48 h, read-out: IGROV LC50, SRB assay, 48 hours exposure): 26 µM
- IGROV TGI (IGROV-1; SRB assay, 48 hours exposure): 3.17E−06
- GI50 (LNCaP; Homo sapiens, LNCaP, 48 h, read-out: LN-caP GI50, SRB assay, 48 hours exposure): 0.424 µM
- CC50 (LNCaP; Homo sapiens, LNCaP, 48 h, read-out: LN-caP LC50, SRB assay, 48 hours exposure): 1.52 µM
- LN-caP TGI (LNCaP; SRB assay, 48 hours exposure): 8.03E−07

Reference: patent US7772241B2, “Variolin derivatives and their use as antitumor agents” (Pharma Mar S.A., priority 2001, dated 2010)
